Experimental data as given in the Kinase Knowledgebase extract (Sharma et al. 2016).
Values after ≈ are worked out from the molar mass of the structure shown.

Target: EGFR (UniProt P00533)
Sequence (P00533 whole entry, looked up): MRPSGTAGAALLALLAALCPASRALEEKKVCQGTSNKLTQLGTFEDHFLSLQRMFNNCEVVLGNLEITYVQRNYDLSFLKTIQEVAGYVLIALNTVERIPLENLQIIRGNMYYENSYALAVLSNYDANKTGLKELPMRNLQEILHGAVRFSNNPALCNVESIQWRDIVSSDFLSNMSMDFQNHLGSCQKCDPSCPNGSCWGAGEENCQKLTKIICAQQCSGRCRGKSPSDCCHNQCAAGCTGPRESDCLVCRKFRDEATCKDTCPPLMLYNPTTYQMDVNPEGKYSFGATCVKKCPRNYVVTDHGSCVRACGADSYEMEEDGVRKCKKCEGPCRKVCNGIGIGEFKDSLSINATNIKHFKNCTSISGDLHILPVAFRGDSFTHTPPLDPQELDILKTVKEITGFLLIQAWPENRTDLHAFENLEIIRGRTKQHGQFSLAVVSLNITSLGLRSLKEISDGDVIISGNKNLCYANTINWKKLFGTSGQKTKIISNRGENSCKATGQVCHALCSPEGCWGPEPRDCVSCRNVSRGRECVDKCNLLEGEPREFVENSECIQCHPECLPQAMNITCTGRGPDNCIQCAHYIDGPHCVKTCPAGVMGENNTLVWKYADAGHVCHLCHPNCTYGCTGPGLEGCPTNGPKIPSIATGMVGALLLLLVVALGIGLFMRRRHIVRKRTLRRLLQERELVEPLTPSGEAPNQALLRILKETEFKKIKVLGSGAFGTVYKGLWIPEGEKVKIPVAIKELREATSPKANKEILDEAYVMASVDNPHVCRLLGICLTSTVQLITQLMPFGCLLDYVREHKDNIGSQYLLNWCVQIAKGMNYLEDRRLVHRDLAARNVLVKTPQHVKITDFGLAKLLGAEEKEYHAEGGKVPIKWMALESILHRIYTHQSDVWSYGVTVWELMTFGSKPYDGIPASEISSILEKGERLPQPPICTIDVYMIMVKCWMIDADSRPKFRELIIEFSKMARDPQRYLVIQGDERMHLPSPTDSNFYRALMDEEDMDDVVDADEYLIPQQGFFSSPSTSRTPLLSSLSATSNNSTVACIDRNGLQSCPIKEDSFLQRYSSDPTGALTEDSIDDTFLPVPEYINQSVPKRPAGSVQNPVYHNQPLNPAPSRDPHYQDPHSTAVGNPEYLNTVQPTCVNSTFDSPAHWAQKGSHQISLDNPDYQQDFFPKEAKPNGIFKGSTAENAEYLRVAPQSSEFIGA

IC50 [µg/mL]	Structure (SMILES)
> 4.5	c1ccc(CNc2ncccc2-c2ncnc(Nc3ccc(N4CCOCC4)cc3)n2)cc1
> 4.5	NC(=O)c1cccc(Nc2ncnc(-n3c(=O)[nH]c4ccccc43)n2)c1
> 4.5	CCOc1cccc(Nc2ncnc(Nc3cc(-c4ccc(C(=O)OC)cc4)n[nH]3)n2)c1
> 4.5	CC[C@H]1CN(c2ccc(-c3ncnc(Nc4cc(OC)c(OC)c(OC)c4)n3)cn2)CCN1
> 4.5	COc1cc(Nc2ncnc(-n3c(Nc4cc(OC)c(OC)c(OC)c4)nc4ccccc43)n2)cc(OC)c1OC
< 0.4	COc1cccc(Nc2ncnc(N(C)c3cccc(Cl)c3)n2)c1
0.4 to 2.4 (≈ 0.916 to 5.5 µM)	COc1cc(Nc2ncnc(Nc3ccc(N4CCCCC4)cc3)n2)cc(OC)c1OC
3.5 to 4.5 (≈ 8.5 to 10.9 µM)	COc1cc(Nc2ncnc(-n3ccc4ccc(Cl)cc43)n2)cc(OC)c1OC
> 4.5	COc1cc(Nc2ncnc(Nc3ncncn3)n2)cc(OC)c1OC
> 4.5	COc1cc(Nc2ncnc(-c3ccncc3)n2)cc(OC)c1OC
< 0.4	CN(c1cccc(Cl)c1)c1ncnc(Nc2cc(-c3ccco3)[nH]n2)n1
3.5 to 4.5 (≈ 8.47 to 10.9 µM)	COc1ccc(Nc2ncnc(Nc3cc(OC)c(OC)c(OC)c3)n2)cc1OC
0.4 to 2.4 (≈ 1.01 to 6.04 µM)	c1ccc(Cn2ncc3cc(Nc4ncnc(NCc5ccco5)n4)ccc32)cc1
0.4 to 2.4 (≈ 0.978 to 5.87 µM)	CN(c1cccc(Cl)c1)c1ncnc(NC2CCN(Cc3ccccc3)CC2)n1
2.4 to 3.5 (≈ 4.42 to 6.44 µM)	COc1ccc(CNc2nc3ccccc3n2-c2ncnc(Nc3cc(OC)c(OC)c(OC)c3)n2)cc1OC
< 0.4	COc1cc(Nc2ncnc(Nc3cccc(Br)c3)n2)cc(OC)c1OC
2.4 to 3.5	COc1ccc2c(c1)nc(NCc1ccc(F)cc1)n2-c1ncnc(Nc2cc(OC)c(OC)c(OC)c2)n1.COc1ccc2nc(NCc3ccc(F)cc3)n(-c3ncnc(Nc4cc(OC)c(OC)c(OC)c4)n3)c2c1
2.4 to 3.5 (≈ 5.05 to 7.36 µM)	c1ccc(CNc2nc3ccccc3n2-c2ncnc(Nc3cccc(Cn4ccnn4)c3)n2)nc1
0.4 to 2.4 (≈ 1.08 to 6.45 µM)	COc1ccc(Nc2ncnc(NCc3cccc(Cl)c3)n2)cc1OC
> 4.5	CC(=O)Nc1ccc(Nc2ncnc(-c3cccs3)n2)cc1
> 4.5	O=c1[nH]c2ccccc2n1-c1ncnc(Nc2cc(C(F)(F)F)cc(C(F)(F)F)c2)n1
> 4.5	COc1cc(Nc2ncnc(-n3c(NCc4ccc(OC(F)(F)F)cc4)nc4ccccc43)n2)cc(OC)c1OC
3.5 to 4.5 (≈ 8.87 to 11.4 µM)	COc1cc(Nc2ncnc(-n3c(=O)[nH]c4ccccc43)n2)cc(OC)c1OC
> 4.5	COc1cc(Nc2ncnc(N3CCc4ccccc43)n2)cc(OC)c1OC
< 0.4	CN(c1ccc2c(cnn2Cc2ccccc2)c1)c1ncnc(Nc2cccc(Cc3nnn[nH]3)c2)n1
< 0.4	COc1cc(Nc2ncnc(Nc3cc(F)cc(C(F)(F)F)c3)n2)cc(OC)c1OC

IC50 [µg/mL]	Structure (SMILES)
0.4 to 2.4 (≈ 1.07 to 6.41 µM)	COc1cc(Nc2ncnc(Nc3nc(C)cs3)n2)cc(OC)c1OC
3.5 to 4.5 (≈ 7.6 to 9.77 µM)	COc1cccc(Nc2ncccc2-c2ncnc(Nc3cc(OC)c(OC)c(OC)c3)n2)c1
> 4.5	CCOC(=O)Cc1cn(-c2ncnc(Nc3cc(OC)c(OC)c(OC)c3)n2)c2ccccc12
> 4.5	CC(C)Nc1ncccc1-c1ncnc(Nc2cccc(CC(=O)O)c2)n1
0.4 to 2.4 (≈ 1.22 to 7.31 µM)	C#Cc1cccc(Nc2ncnc(-n3c(=O)[nH]c4ccccc43)n2)c1
3.5 to 4.5 (≈ 10.4 to 13.4 µM)	CC(C)Nc1ncccc1-c1ncnc(Nc2cccc(CO)c2)n1
> 4.5	COc1cc(Nc2ncnc(Nc3nc(-c4ccccc4)cs3)n2)cc(OC)c1OC
> 4.5	COc1cc(Nc2ncnc(-n3cc(CC(N)=O)c4ccccc43)n2)cc(OC)c1OC
> 4.5	COc1cc(Nc2ncnc(-n3ccc4ccccc43)n2)cc(OC)c1OC
< 0.4	CN(c1cccc(Cl)c1)c1ncnc(Nc2cccc(Cn3ccnn3)c2)n1
> 4.5	Nc1ncnc(Nc2cc(Cl)ccc2O)n1
> 4.5	COc1cc(Nc2ncnc(-n3c(Nc4ccc(Cl)cc4)nc4ccccc43)n2)cc(OC)c1OC
> 4.5	COc1cc(Nc2ncnc(-c3c(O)[nH]c4ccccc34)n2)cc(OC)c1OC
> 4.5	COc1cc(Nc2ncnc(-c3ccc(NCCCO)nc3)n2)cc(OC)c1OC
> 4.5	COc1cc(Nc2ncnc(N3CCCC3)n2)cc(OC)c1OC
0.4 to 2.4 (≈ 1.03 to 6.18 µM)	CN(C)CCNc1ncnc(Nc2ccc3c(cnn3Cc3ccccc3)c2)n1
> 4.5	Cc1cccc(Nc2ncnc(-n3cccc3)n2)c1C
0.4 to 2.4 (≈ 0.987 to 5.92 µM)	CCOC(=O)Cc1ccc(Nc2ncnc(Nc3cc(-c4ccco4)n[nH]3)n2)cc1
> 4.5	COc1cccc(Nc2ncnc(-c3cccs3)n2)n1
> 4.5	COCCOc1ccc(Nc2ncnc(Nc3ccc(C)c(F)c3)n2)cc1OCCOC
3.5 to 4.5 (≈ 8.78 to 11.3 µM)	COc1ccc(-c2ncnc(Nc3cc(OC)c(OC)c(OC)c3)n2)cc1OC
> 4.5	COc1cc(Nc2ncnc(-c3cccnc3NC(C)c3ccccc3)n2)cc(OC)c1OC (stereo not drawn)
< 0.4	COc1cc(Nc2ncnc(Nc3cc(Cl)c(O)c(Cl)c3)n2)cc(OC)c1OC
< 0.4	Cc1ccc2c(c1)CCCN2c1ncnc(Nc2cccc(Cc3nnn[nH]3)c2)n1
2.4 to 3.5 (≈ 4.34 to 6.32 µM)	COc1cc(Nc2ncnc(-n3c(Nc4ccc(OC(F)(F)F)cc4)nc4ccccc43)n2)cc(OC)c1OC
0.4 to 2.4 (≈ 1.07 to 6.45 µM)	Nc1nc2ccccc2n1-c1ncnc(Nc2ccc(Cl)c(Cl)c2)n1

IC50 [µg/mL]	Structure (SMILES)
0.4 to 2.4 (≈ 0.791 to 4.75 µM)	COc1ccc(CNc2nc3ccccc3n2-c2ncnc(Nc3cccc(Cc4nnn[nH]4)c3)n2)cc1
0.4 to 2.4 (≈ 1.19 to 7.17 µM)	CCN(CC)CCNc1ncnc(N(C)c2cccc(Cl)c2)n1
> 4.5	COc1cc(Nc2ncnc(-n3c(NC(CO)c4ccccc4)nc4ccccc43)n2)cc(OC)c1OC (stereo not drawn)
> 4.5	CN1CCN(Cc2cccc(Nc3ncnc(Nc4cccc5ccccc45)n3)c2)CC1
> 4.5	COc1ccc(Nc2ncnc(-c3cccs3)n2)cc1OC
> 4.5	COc1cc(Nc2ncnc(-c3cccnc3Cl)n2)cc(OC)c1OCCN1CCOCC1
3.5 to 4.5 (≈ 9.53 to 12.2 µM)	COc1ccc(Nc2ncnc(NCC(O)c3ccccc3)n2)cc1OC (stereo not drawn)
3.5 to 4.5 (≈ 6.22 to 8 µM)	COc1cc(Nc2ncnc(-n3c(NCc4cccc(Br)c4)nc4ccccc43)n2)cc(OC)c1OC
> 4.5	COc1ccc(CNc2ncccc2-c2ncnc(Nc3cc(OC)c(OC)c(OC)c3)n2)cc1
3.5 to 4.5 (≈ 6.58 to 8.46 µM)	COc1cc(Nc2ncnc(-n3c(NCc4ccc(Cl)cc4C)nc4ccccc43)n2)cc(OC)c1OC
> 4.5	COC(=O)c1cccc(Nc2ncnc(-n3c(NCc4ccc(OC)cc4)nc4ccccc43)n2)c1
0.4 to 2.4 (≈ 1.01 to 6.04 µM)	COc1ccc(N(C)c2ncnc(Nc3cc(OC)c(OC)c(OC)c3)n2)cc1
0.4 to 2.4 (≈ 0.796 to 4.78 µM)	COc1cc(Nc2ncnc(Nc3ccc(OCC(=O)Nc4ccccc4)cc3)n2)cc(OC)c1OC
> 4.5	COc1ccc(Nc2ncnc(NCCCOC(C)C)n2)cc1OC
> 4.5	COc1cc(Nc2ncnc(-c3cccnc3NC(C)C)n2)ccc1NC(=O)CCCN1CCNCC1
> 4.5	COc1cc(Nc2ncnc(-n3c(=O)[nH]c4ccccc43)n2)cc(OCCN2CCOCC2)c1OC
> 4.5	Nc1nc2ccccc2n1-c1ncnc(Nc2ccc(S(N)(=O)=O)cc2)n1
> 4.5	COC(=O)n1c(=O)n(-c2ncnc(Nc3cc(OC)c(OC)c(OC)c3)n2)c2ccccc21
0.4 to 2.4 (≈ 0.812 to 4.87 µM)	Fc1cccc(CNc2nc3ccccc3n2-c2ncnc(Nc3cccc(Cn4ccnn4)c3)n2)c1
0.4 to 2.4 (≈ 1.21 to 7.24 µM)	CCc1ccc(Nc2ncnc(-n3c(N)nc4ccccc43)n2)cc1
> 4.5	COc1cc(Nc2ncnc(-n3c(NC(C)C)nc4ccccc43)n2)cc(OC)c1OC
> 4.5	COc1ccc(Nc2ncnc(N(C)C3CCN(Cc4ccccc4)C3)n2)cc1OC (stereo not drawn)
> 4.5	COc1cc(Nc2ncnc(-c3cc4ccccc4s3)n2)cc(OC)c1OC
< 0.4	Cc1ccc(Cl)cc1Nc1ncnc(Nc2cc(Cl)ccc2C)n1
> 4.5	COc1cc(Nc2ncnc(-c3ccc(NCc4ccccc4)nc3)n2)cc(OC)c1OC
> 4.5	Nc1ncnc(Nc2ccc(C3CCCCC3)cc2)n1

IC50 [µg/mL]	Structure (SMILES)
> 4.5	COc1ccc2c(c1)nc(Cl)n2-c1ncnc(Nc2cc(OC)c(OC)c(OC)c2)n1.COc1ccc2nc(Cl)n(-c3ncnc(Nc4cc(OC)c(OC)c(OC)c4)n3)c2c1
> 4.5	COc1ccc(CCNc2ncnc(N3CCCc4cc(C)ccc43)n2)cc1OC
3.5 to 4.5 (≈ 7.41 to 9.52 µM)	COC(=O)c1ccc(-c2cc(Nc3ncnc(Nc4ccc(N5CCOCC5)cc4)n3)[nH]n2)cc1
> 4.5	O=c1[nH]c2ccccc2n1-c1ncnc(Nc2cccc(OC(F)(F)F)c2)n1
> 4.5	COc1cc(Nc2ncnc(-n3c(NC(C)(C)c4ccccc4)nc4ccccc43)n2)cc(OC)c1OC
< 0.4	CN(c1cccc(Cl)c1)c1ncnc(Nc2ccc3nn(Cc4ccccc4)cc3c2)n1
3.5 to 4.5 (≈ 6.82 to 8.76 µM)	COc1cc(Nc2ncnc(-n3c(Nc4cccc(C(=O)O)c4)nc4ccccc43)n2)cc(OC)c1OC
2.4 to 3.5 (≈ 5.72 to 8.34 µM)	COc1cc(Nc2ncnc(-n3ncc(-c4ccccc4)c3N)n2)cc(OC)c1OC
2.4 to 3.5 (≈ 4.69 to 6.84 µM)	COc1cc(Nc2ncnc(N(CC(=O)OC(C)(C)C)c3ccc4c(c3)OCO4)n2)cc(OC)c1OC
< 0.4	COc1ccc(Nc2ncnc(Nc3cccc(Br)c3)n2)cc1OC
> 4.5	Fc1ccc(Nc2ncnc(-n3cccc3)n2)cc1
2.4 to 3.5 (≈ 6.57 to 9.58 µM)	COc1ccc(Nc2ncnc(NCC(=O)c3ccccc3)n2)cc1OC
> 4.5	COc1cc(Nc2ncnc(-n3c(NCCc4ccncc4)nc4ccccc43)n2)cc(OC)c1OC
> 4.5	COc1cc(Nc2ncnc(N3CCc4ccc([N+](=O)[O-])cc43)n2)cc(OC)c1OC
< 0.4	CN(c1cccc(Cl)c1)c1ncnc(Nc2ccc(CC(=O)O)cc2)n1
< 0.4	CN(c1cccc(Cl)c1)c1ncnc(Nc2cccc(CC(=O)O)c2)n1
> 4.5	FC(F)C(F)(F)Oc1cccc(Nc2ncnc(-c3ccnc(N4CCCCC4)c3)n2)c1
< 0.4	CN(c1cccc(Br)c1)c1ncnc(Nc2cccc(Cc3nnn[nH]3)c2)n1
2.4 to 3.5 (≈ 4.96 to 7.24 µM)	COc1cc(Nc2ncnc(N(Cc3ccccc3)c3nc4ccccc4[nH]3)n2)cc(OC)c1OC
> 4.5	COc1cc(Nc2ncnc(NC(=O)NCCc3ccccc3)n2)cc(OC)c1OC
0.4 to 2.4 (≈ 0.881 to 5.29 µM)	COc1cc(Nc2ncnc(Nc3cc(-c4cccc(Cl)c4)n[nH]3)n2)cc(OC)c1OC
2.4 to 3.5 (≈ 6.13 to 8.94 µM)	CCOc1ccc(Nc2ncnc(-n3c(N)nc4ccccc43)n2)cc1OCC
> 4.5	COc1cc(Nc2ncnc(-c3cccnc3Nc3cccc(C(N)=O)c3)n2)cc(OC)c1OC
> 4.5	COc1cc(Nc2ncnc(-n3c(NCc4cccnc4)nc4ccccc43)n2)cc(OC)c1OC

Structure (SMILES)	IC50 [µg/mL]
COc1cc(Nc2ncnc(-c3cccnc3Nc3ccccc3)n2)cc(OC)c1OC	> 4.5
